The values below come from patent US9968570B2, “Compositions and methods for treating cancer” (Chemo-Enhanced LLC, priority 2013, dated 2018).

For assay [1], the system named is L3.6 pancreatic cancer cells. In words: MTT cell viability assay, C6-Ceramide / chemo agents / pathway inhibitors. In kind it is cell-based, human. The note with it: 48 h; for cell death: MTT; for L3.6 cell viability, agent alone: LY 294002 1 μM, rapamycin 100 nM, U0126 1 μg/ml, Gemcitabine 1 μg/ml. The procedure:
L3.6 pancreatic cancer cells, cultured either in basic DMEM medium or with 10% FBS, were treated with indicated doses of Taxol in the presence or absence of C6 Ceramide (10 μg/ml) for 48 hours, cell viability was detected by MTT assay (FIGS. 4A and B). L3.6 cells, cultured either in basic DMEM medium or with 10% FBS, were treated with indicated dose of C6 Ceramide in the presence or absence of Taxol (1.5 μg/ml) for 48 hours, cell viability was detected by MTT assay as described (FIGS. 4C and D). Mitomycin C (10 μg/ml) was always present in the media to prevent cell proliferation from occurring. The data represent the mean±SD of at least triplicate experiments. *P<0.05 versus group without C6 Ceramide presents (FIGS. 4A and B). **P<0.05 versus group without Taxol presents (C and D).
(§1) Mitomycin C (10 ug/ml) was always present in the media to prevent cell proliferation from occurring.
FIG. 9 depicts data showing the effect of survival pathway inhibitors on cytotoxicity of Taxol and Gemcitabine in L3.6 pancreatic tumor cells. L3.6 cells were pretreated with various inhibitors including PI3K/AKT inhibitor LY 294002 (LY, 1 μM), mTORC1 inhibitor rapamycin (100 nM), MEK/ERK inhibitor U0126 (1 μg/ml), alone or in the presence of Taxol (1.5 μg/ml) or Gemcitabine (1 μg/ml) for 48 hours, with cell death detected 48 hours later (FIG. 9, left). Effects of various inhibitors as mentioned above on AKT/mTORC1 and ERK activation were also examined by Western blots using commercially available antibodies (FIG. 9, right). *P<0.05 versus group without C6 Ceramide presents. […] In FIG. 9, left panel, the DMSO=left bar; LY294002=second left bar; U0126=middle bar; Rapamycin=second right bar; and LY+U0126=right bar.
(§2) Cell viability was measured by the 3-(4,5-dimethylthiazol-2-yl)-2,5-diphenyltetrazolium bromide (MTT) method, as described previously (Cao, C., et al. Sci Signal, 2: ra17, 2009; and Vanhaesebroeck, B., et al. Annu Rev Biochem, 70: 535-602, 2001). Briefly, the cells were collected and seeded in 96-well plate at a density of 2×10^5 cells/cm^2. Different seeding densities were optimized at the beginning of the experiments. After overnight incubation cells were exposed to fresh medium containing indicated reagents at 37° C. After incubation for different time periods, 20 μl of MTT tetrazolium (Sigma, St. Louis, Mo.) salt dissolved in Hank's balanced salt solution at a concentration of 5 mg/ml was added to each well and incubated in a CO2 incubator for an additional 4 hours. The medium was subsequently aspirated from each well and 150 μl of DMSO (Sigma, St. Louis, Mo.) was added to dissolve formazan crystals and the absorbance of each well was obtained using a Dynatech MR5000 plate reader at a test wavelength of 490 nm with a reference wavelength of 630 nm.

In another assay the test system is MIA-PaCa2 (MIA) cells. As to the kind of experiment: MTT cell viability assay, C6-Ceramide with chemo agents. The note with it: MIA cells (FIG. 6C), basic DMEM; Gemcitabine 3 μg/ml, Taxol 15 ug/ml, C6-Ceramide 10 ug/ml, Cetuximab 10 ug/ml. The format is cell-based, human. As for the experimental part: as §1, §2
For orientation: Tetrazolium dyes change colour on reduction, which living cells bring about.

The subject of the next assay is Panc-1. The description is as above. In kind it is cell-based, human. The note with it: Panc-1 (FIG. 6B), basic DMEM; Gemcitabine 3 μg/ml, Taxol 15 ug/ml, C6-Ceramide 10 ug/ml, Cetuximab 10 ug/ml. The procedure: as §1, §2
The test system of the next assay is L3.6 pancreatic cells. The format is in vivo. As to conditions: for tumor volume and mouse survival: Taxol 3 mg/kg, C6-Ceramide 10 mg/kg, I.P. 3x/wk, vs control treatment group. The procedure:
SCID/Beige/Taconic nude male mice, 22-25 g, 6-8 weeks old were ear tagged and randomized into 4 different groups (Control, Ceramide, Paclitaxel, Ceramide+Paclitaxel) of 5 mice each prior to inoculation s.c. with 2×10^6 L3.6 cells in a volume 0.1 ml into the internal surface of the right thigh. Treatment was started 4 days after L3.6 cell injection with thrice weekly (3×/wk) intraperitoneal (I.P.) injections of Paclitaxel 3.0 mg/kg with or without C6-Ceramide (10 mg/kg) for 2 weeks. Mice survival (A and C), tumor volume (in cm^3) (B), mice body weight (in grams) were recorded (E). Average rate of tumor development was calculated by total tumor volume dividing by total number of days monitored (D).
FIG. 7A and FIG. 7D: SCID/Beige/Taconic nude male mice, 22-25 g, 6-8 weeks old were ear tagged and randomized into 4 different groups (Control, Ceramide, Gemcitabine, Ceramide+Gemcitabine) combining 5 mice each prior to inoculation s.c. with 2×10^6 L3.6 cells in a volume 0.1 ml into the internal surface of the right thigh. Treatment was started 4 days after L3.6 cell injection with thrice weekly (3×/wk) intraperitoneal (I.P.) injections of Gemcitabine (two doses: […]) with or without C6-Ceramide ([…]) for 2 weeks. […] Mice survival (A, B and E) and tumor volume (in cm^3) (C and D) were recorded (E). In (E), the left bar indicates treatment without C6, and the right bar indicates treatment with C6.
SCID/Beige/Taconic male mice were inoculated with 2×10^6 L3.6 pancreatic cells and begun treatment 4 days post tumor implant with thrice weekly (3×/wk) intraperitoneal (I.P.) injections of Paclitaxel (Taxol) 3.0 mg/kg or Gemcitabine (Gem) 10 mg/kg—after treatment and were autopsied when near death (as per IRB committee). Mouse survival, tumor volume (in cm^3), and body weight (in grams) were recorded. Average rate of tumor development was calculated by dividing total tumor volume by total number of days monitored.

In the next assay the test system is AKT/mTORC1 and ERK. As to the kind of experiment: Western blot of AKT/mTORC1 and ERK activation in L3.6 cells. The format is cell-based, human. As to conditions: 2-6 h, Gemcitabine 1 μg/ml, Taxol 1.5 μg/ml, C6 Ceramide 10 μg/ml. An excerpt:
Antibody binding was detected with the enhanced chemiluminescence (ECL) detection system (Amersham Biosciences, Piscataway, N.J.).
(Immunoblotting shows a protein as a band on a membrane.)

The subject of assay [2] is L3.6 pancreatic cancer cells. In words: MTT cell viability assay, C6-Ceramide / chemo agents / pathway inhibitors. The note with it: L3.6 (FIG. 6A), basic DMEM; Gemcitabine 3 μg/ml, Taxol 15 ug/ml, C6-Ceramide 10 ug/ml, Cetuximab 10 ug/ml. In kind it is cell-based, human.
The next assay concerns CaOV3 cells. In words: Confocal microscopy of C6-NBD ceramide entry into ovarian cancer cells. In kind it is cell-based, human. As to conditions: for effect on polarized entry of C6 ceramide: CaOV3 cells pretreated 1 h, then C6-NBD; for effect on C6 ceramide entry into the cells: CaOV3 cells pretreated with inhibitor, C6-NBD-ceramide. The procedure:
(A and C) CaOV3 cells were cultured in 8-well chamber slides and treated with C6-NBD ceramide (6 μg/ml). (B) The cells were fixed with formaldehyde at various times following treatment or were treated with the indicated doses of C6-NBD-ceramide, with or without fixation. The cells were processed and observed under a confocal microscope.
CaOV3 cells were cultured in 8-well chamber slides and treated with or without (A) a lipid raft/caveolae inhibitor or with (B) water channel inhibitors, CuSO4 or NiCl2. The cells were fixed with formaldehyde, processed and observed under a confocal microscope.
(A) CaOV3 cells were cultured in 8-well chamber slides, pretreated with taxol or doxorubicin for 1 h and then treated with C6-NBD-ceramide for 5 or 15 min. The cells were fixed with formaldehyde and processed for confocal microscopy. (B) The cells were pretreated with taxol and then C6-NBD-ceramide and processed for confocal microscopy without fixation.
The cells were plated in eight-well chamber slides (Lab-Tek; Nalge Nunc International, Naperville, Ill., USA) and treated with various reagents, including C6-NBD ceramide, taxol and CuSO4. Next, the cells were either left untreated or were fixed for 20 min in fresh 4% paraformaldehyde-PBS. The cell nuclei were also stained with Hoechst (1 μg/ml in PBS) for 10 min. The slides were mounted with anti-fade (Life Technologies, Grand Island, N.Y., USA) and stored in the dark until viewing. The samples were observed under a confocal microscope and images were captured by Zen 2009 Light Edition (Carl Zeiss AG, Oberkochen, Germany).

[3] abbreviates: L3.6, basic DMEM medium, Taxol 1.5 ug/ml, C6-ceramide 10 ug/ml.
Setting [4] is: L3.6 cultured in 10% FBS, C6-Ceramide 2.5 μg/ml, Taxol 1.5 μg/ml.

Consider `CCCCCCCCCCCCC/C=C/[C@@H](O)[C@H](CO)NC(=O)CCCCC` [Fraction C6-ceramide, N-hexanoyl-D-sphingosine], for which the cell death result in assay [1] (setting [3]) is reported as “no effect”; in assay [1] (setting [4]), “neither of these two alone had any measurable effect”; in the assay on MIA-PaCa2 (MIA) cells it was “None of Gemcitabine (3 μg/ml), Taxol (15 ug/ml) or C6-Ceramide (10 ug/ml) alone had a significant effect”; in the assay on Panc-1, “None of Gemcitabine (3 μg/ml), Taxol (15 ug/ml) or C6-Ceramide (10 ug/ml) alone had a significant effect”; in assay [2], “None of Gemcitabine (3 μg/ml), Taxol (15 ug/ml) or C6-Ceramide (10 ug/ml) alone had a significant effect”. For the same molecule, the “tumor volume and mouse survival” value with L3.6 pancreatic cells was “minimal effects on tumor volume and mouse survival”. Also, the “AKT/mTORC1 and ERK activation” value in the assay on AKT/mTORC1 and ERK was “moderate inhibition”.
`COc1cccc2c1C(=O)c1c(O)c3c(c(O)c1C2=O)C[C@@](O)(C(=O)CO)C[C@@H]3O[C@H]1C[C@H](N)[C@H](O)[C@H](C)O1` [doxorubicin]: in the assay with CaOV3 cells, the “effect on polarized entry of C6 ceramide” value is “had no such effect”.
In the case of `CC(=O)O[C@H]1C(=O)[C@@]2(C)[C@H]([C@H](OC(=O)c3ccccc3)[C@]3(O)C[C@H](OC(=O)[C@H](O)[C@@H](NC(=O)c4ccccc4)c4ccccc4)C(C)=C1C3(C)C)[C@]1(OC(C)=O)CO[C@@H]1C[C@@H]2O` [Taxol, paclitaxel], the “L3.6 cell viability, agent alone” value in assay [1] (Taxol 1.5 μg/ml) is “little or no significant effect”. For the same molecule, the cell death was 30% in assay [1] (setting [3]); “neither of these two alone had any measurable effect” in assay [1] (setting [4]); “None of Gemcitabine (3 μg/ml), Taxol (15 ug/ml) or C6-Ceramide (10 ug/ml) alone had a significant effect” in the assay on MIA-PaCa2 (MIA) cells; “None of Gemcitabine (3 μg/ml), Taxol (15 ug/ml) or C6-Ceramide (10 ug/ml) alone had a significant effect” in the assay with Panc-1; “None of Gemcitabine (3 μg/ml), Taxol (15 ug/ml) or C6-Ceramide (10 ug/ml) alone had a significant effect” in assay [2]. Moreover, the “tumor volume and mouse survival” value with L3.6 pancreatic cells was “minimal effects on tumor volume and mouse survival”. For the same molecule, the “effect on polarized entry of C6 ceramide” value in the assay with CaOV3 cells is given as “disrupted the polarized pattern of C6 entry”.
For the molecule `Nc1ccn([C@@H]2O[C@H](CO)[C@@H](O)C2(F)F)c(=O)n1` [Gemcitabine, gemcitabine], in assay [1] (Taxol 1.5 μg/ml), the “L3.6 cell viability, agent alone” value is reported as “little or no significant effect”. Also, the cell death entry with MIA-PaCa2 (MIA) cells is given as “None of Gemcitabine (3 μg/ml), Taxol (15 ug/ml) or C6-Ceramide (10 ug/ml) alone had a significant effect”; with Panc-1, “None of Gemcitabine (3 μg/ml), Taxol (15 ug/ml) or C6-Ceramide (10 ug/ml) alone had a significant effect”; in assay [2] it was “None of Gemcitabine (3 μg/ml), Taxol (15 ug/ml) or C6-Ceramide (10 ug/ml) alone had a significant effect”. Further, the “survival and tumor growth” value in the assay with L3.6 pancreatic cells (Gemcitabine 5 mg/kg and 10 mg/kg, C6-ceramide 10 mg/kg, I.P. 3x/wk for 2 weeks) is “limited effect on survival and tumor growth”. Besides, the “AKT/mTORC1 and ERK activation” value with AKT/mTORC1 and ERK is “no effect”.
Take `[Cl][Ni][Cl]` [NiCl2]: the “effect on C6 ceramide entry into the cells” value in the assay on CaOV3 cells is “does not”.
In the case of `CCCCC[C@@H](O)[C@H]1C(=O)O[C@H](C)[C@@H](O)/C=C/C=C/C=C/C=C/C=C(\C)[C@@H](O)C[C@H](O)C[C@H](O)C[C@H](O)C[C@H](O)C[C@H](O)C[C@@H]1O` [Filipin], the “effect on C6 ceramide entry into the cells” value in the assay on CaOV3 cells is “inhibited the C6 ceramide entry into the CaOV3 cells”.
With `N#CC(=C(N)Sc1ccccc1N)C(C#N)=C(N)Sc1ccccc1N` [Fraction U0126, 1,4-diamino-2,3-dicyano-1,4-bis[2-aminophenylthio]butadiene], the “L3.6 cell viability, agent alone” value in assay [1] (Taxol 1.5 μg/ml) is “little or no significant effect”.
Take `O=S(=O)([O-])[O-].[Cu+2]` [CuSO4]: the “effect on C6 ceramide entry into the cells” value in the assay on CaOV3 cells is given as “inhibits C6 ceramide entry into the cells”.
